The NIST ThermoML archive (doi:10.1021/acs.jced.8b00537)
± gives the expanded uncertainty stated by the source.

Assay: xn = mol fraction of the nth substance listed
Conditions: 100 kPa, Liquid; for viscosity: Capillary tube (Ostwald / Ubbelohde) method; for speed of sound: Frequency=3 MHz, Single path-length method; for mass density: Vibrating tube method

O=S(=O)([N-]S(=O)(=O)C(F)(F)F)C(F)(F)F.On1cc[n+](O)c1 [1,3-dihydroxyimidazolium bis(trifluoromethylsulfonyl)imide] + CCCO
Conditions	mass density [kg/m3]	speed of sound [m/s]	viscosity [mPa·s]
293.15 K, x1 = 0.0999	1039 ± 2	1192.5 ± 6	6.428 ± 0.52
293.15 K, x1 = 0.1994	1207 ± 3	1175.2 ± 6	10.56 ± 0.85
293.15 K, x1 = 0.2993	1333 ± 3	1166.5 ± 6	18.74 ± 1.5
293.15 K, x1 = 0.3992	1430 ± 3	1167 ± 6.1	31.05 ± 2.5
293.15 K, x1 = 0.4985	1510 ± 3	1170.2 ± 6.1	46.71 ± 3.8
293.15 K, x1 = 0.5999	1576 ± 3	1175.3 ± 6.1	65.75 ± 5.3
293.15 K, x1 = 0.6989	1631 ± 4	1182.6 ± 6.2	99.34 ± 8.1
293.15 K, x1 = 0.7996	1680 ± 4	1190.1 ± 6.2	120.22 ± 9.8
293.15 K, x1 = 0.8973	1719 ± 4	1198.4 ± 6.3	184.26 ± 15
293.15 K, x1 = 1	1746 ± 4	1208.2 ± 6.3	238.6 ± 20
298.15 K, x1 = 0.0999	1034 ± 2	1177.8 ± 6	5.606 ± 0.45
298.15 K, x1 = 0.1994	1202 ± 3	1161.9 ± 6	9.087 ± 0.73
298.15 K, x1 = 0.2993	1328 ± 3	1154 ± 6	15.55 ± 1.2
298.15 K, x1 = 0.3992	1425 ± 3	1155 ± 6.1	25.3 ± 2
298.15 K, x1 = 0.4985	1505 ± 3	1158.3 ± 6.1	37.27 ± 3
298.15 K, x1 = 0.5999	1570 ± 3	1163.5 ± 6.1	51.4 ± 4.1
298.15 K, x1 = 0.6989	1625 ± 4	1171 ± 6.2	76.1 ± 6.1
298.15 K, x1 = 0.7996	1674 ± 4	1178.4 ± 6.2	90.44 ± 7.3
298.15 K, x1 = 0.8973	1713 ± 4	1186.7 ± 6.3	135.12 ± 11
298.15 K, x1 = 1	1740 ± 4	1196.6 ± 6.3	171.83 ± 14
303.15 K, x1 = 0.0999	1030 ± 2	1163.2 ± 6	4.921 ± 0.4
303.15 K, x1 = 0.1994	1197 ± 3	1148.7 ± 6	7.864 ± 0.63
303.15 K, x1 = 0.2993	1323 ± 3	1141.6 ± 6	13.07 ± 1
303.15 K, x1 = 0.3992	1419 ± 3	1143.1 ± 6.1	20.93 ± 1.7
303.15 K, x1 = 0.4985	1499 ± 3	1146.7 ± 6.1	30.21 ± 2.4
303.15 K, x1 = 0.5999	1564 ± 3	1152 ± 6.1	40.94 ± 3.3
303.15 K, x1 = 0.6989	1620 ± 4	1159.5 ± 6.2	59.33 ± 4.8
303.15 K, x1 = 0.7996	1668 ± 4	1166.9 ± 6.2	–
303.15 K, x1 = 0.8973	1707 ± 4	1175.2 ± 6.3	101.71 ± 8.3
303.15 K, x1 = 1	1735 ± 4	1185.2 ± 6.3	127.52 ± 10
308.15 K, x1 = 0.0999	1025 ± 2	1148.9 ± 6	4.34 ± 0.35
308.15 K, x1 = 0.1994	1192 ± 3	1135.7 ± 6	6.844 ± 0.55
308.15 K, x1 = 0.2993	1318 ± 3	1129.4 ± 6	11.09 ± 0.89
308.15 K, x1 = 0.3992	1414 ± 3	1131.4 ± 6.1	17.59 ± 1.4
308.15 K, x1 = 0.4985	1494 ± 3	1135.2 ± 6.1	24.91 ± 2
308.15 K, x1 = 0.5999	1559 ± 3	1140.7 ± 6.1	33.19 ± 2.7
308.15 K, x1 = 0.6989	1614 ± 4	1148.3 ± 6.2	47.17 ± 3.8
308.15 K, x1 = 0.7996	1662 ± 4	1155.7 ± 6.2	54.77 ± 4.4
308.15 K, x1 = 0.8973	1702 ± 4	1164 ± 6.3	78.32 ± 6.3
308.15 K, x1 = 1	1729 ± 4	1174.1 ± 6.3	96.92 ± 7.9
313.15 K, x1 = 0.0999	1020 ± 2	1134.6 ± 6	3.849 ± 0.31
313.15 K, x1 = 0.1994	1187 ± 3	1122.8 ± 6	5.991 ± 0.48
313.15 K, x1 = 0.2993	1313 ± 3	1117.3 ± 6	9.541 ± 0.76
313.15 K, x1 = 0.3992	1409 ± 3	1119.8 ± 6.1	14.92 ± 1.2
313.15 K, x1 = 0.4985	1489 ± 3	1123.9 ± 6.1	20.85 ± 1.7
313.15 K, x1 = 0.5999	1553 ± 3	1129.5 ± 6.1	27.38 ± 2.2
313.15 K, x1 = 0.6989	1608 ± 3	1137.2 ± 6.2	37.93 ± 3.1
313.15 K, x1 = 0.7996	1657 ± 4	1144.6 ± 6.2	43.92 ± 3.5
313.15 K, x1 = 0.8973	1696 ± 4	1153 ± 6.3	61.38 ± 4.9
313.15 K, x1 = 1	1723 ± 4	1163.1 ± 6.3	75.56 ± 6.1
318.15 K, x1 = 0.0999	1016 ± 2	1120.5 ± 6	3.434 ± 0.28
318.15 K, x1 = 0.1994	1182 ± 3	1110.1 ± 6	5.275 ± 0.42
318.15 K, x1 = 0.2993	1308 ± 3	1105.4 ± 6	8.279 ± 0.66
318.15 K, x1 = 0.3992	1404 ± 3	1108.3 ± 6.1	12.81 ± 1
318.15 K, x1 = 0.4985	1483 ± 3	1112.7 ± 6.1	17.64 ± 1.4
318.15 K, x1 = 0.5999	1548 ± 3	1118.5 ± 6.1	22.86 ± 1.8
318.15 K, x1 = 0.6989	1603 ± 3	1126.3 ± 6.2	31.31 ± 2.5
318.15 K, x1 = 0.7996	1651 ± 4	1133.7 ± 6.2	35.76 ± 2.9
318.15 K, x1 = 0.8973	1690 ± 4	1142.1 ± 6.3	49.13 ± 4
318.15 K, x1 = 1	1717 ± 4	1152.3 ± 6.3	59.8 ± 4.8
323.15 K, x1 = 0.0999	1011 ± 2	1106.4 ± 6	3.072 ± 0.25
323.15 K, x1 = 0.1994	1178 ± 2	1097.4 ± 6	4.675 ± 0.38
323.15 K, x1 = 0.2993	1303 ± 3	1093.6 ± 6	7.234 ± 0.58
323.15 K, x1 = 0.3992	1398 ± 3	1097 ± 6.1	11.09 ± 0.89
323.15 K, x1 = 0.4985	1478 ± 3	1101.6 ± 6.1	15.11 ± 1.2
323.15 K, x1 = 0.5999	1542 ± 3	1107.6 ± 6.1	19.34 ± 1.6
323.15 K, x1 = 0.6989	1597 ± 3	1115.5 ± 6.2	25.89 ± 2.1
323.15 K, x1 = 0.7996	1645 ± 4	1123 ± 6.2	29.52 ± 2.4
323.15 K, x1 = 0.8973	1684 ± 4	1131.4 ± 6.3	39.97 ± 3.2
323.15 K, x1 = 1	1711 ± 4	1141.6 ± 6.3	48.29 ± 3.9
328.15 K, x1 = 0.0999	1006 ± 2	1092.4 ± 6	2.759 ± 0.22
328.15 K, x1 = 0.1994	1173 ± 2	1084.9 ± 6	4.171 ± 0.34
328.15 K, x1 = 0.2993	1298 ± 3	1082 ± 6	6.368 ± 0.51
328.15 K, x1 = 0.3992	1393 ± 3	1085.8 ± 6.1	9.679 ± 0.78
328.15 K, x1 = 0.4985	1472 ± 3	1090.7 ± 6.1	13.05 ± 1
328.15 K, x1 = 0.5999	1537 ± 3	1096.8 ± 6.1	16.53 ± 1.3
328.15 K, x1 = 0.6989	1592 ± 3	1104.8 ± 6.2	21.88 ± 1.8
328.15 K, x1 = 0.7996	1640 ± 4	1112.3 ± 6.2	24.73 ± 2
328.15 K, x1 = 0.8973	1679 ± 4	1120.8 ± 6.3	32.99 ± 2.7
328.15 K, x1 = 1	1705 ± 4	1131.1 ± 6.3	39.57 ± 3.2
333.15 K, x1 = 0.0999	1002 ± 2	1078.5 ± 6	2.491 ± 0.2
333.15 K, x1 = 0.1994	1168 ± 2	1072.4 ± 6	3.742 ± 0.3
333.15 K, x1 = 0.2993	1293 ± 3	1070.4 ± 6	5.644 ± 0.45
333.15 K, x1 = 0.3992	1388 ± 3	1074.7 ± 6.1	8.509 ± 0.68
333.15 K, x1 = 0.4985	1467 ± 3	1080 ± 6.1	11.37 ± 0.91
333.15 K, x1 = 0.5999	1532 ± 3	1086.1 ± 6.1	14.29 ± 1.1
333.15 K, x1 = 0.6989	1586 ± 3	1094.2 ± 6.2	18.68 ± 1.5
333.15 K, x1 = 0.7996	1634 ± 4	1101.8 ± 6.2	20.94 ± 1.7
333.15 K, x1 = 0.8973	1673 ± 4	1110.3 ± 6.3	27.57 ± 2.2
333.15 K, x1 = 1	1700 ± 4	1120.7 ± 6.3	32.88 ± 2.7
338.15 K, x1 = 0.0999	997 ± 2	1064.5 ± 6	2.255 ± 0.18
338.15 K, x1 = 0.1994	1163 ± 2	1060.1 ± 6	3.375 ± 0.27
338.15 K, x1 = 0.2993	1288 ± 3	1059 ± 6	5.034 ± 0.4
338.15 K, x1 = 0.3992	1383 ± 3	1063.7 ± 6.1	7.522 ± 0.6
338.15 K, x1 = 0.4985	1462 ± 3	1069.3 ± 6.1	9.989 ± 0.8
338.15 K, x1 = 0.5999	1526 ± 3	1075.6 ± 6.1	12.46 ± 1
338.15 K, x1 = 0.6989	1581 ± 3	1083.8 ± 6.2	16.12 ± 1.3
338.15 K, x1 = 0.7996	1628 ± 4	1091.5 ± 6.2	17.87 ± 1.4
338.15 K, x1 = 0.8973	1667 ± 4	1100 ± 6.3	23.34 ± 1.9
338.15 K, x1 = 1	1694 ± 4	1110.4 ± 6.3	27.69 ± 2.2
343.15 K, x1 = 0.0999	992 ± 2	1050.7 ± 6	2.051 ± 0.17
343.15 K, x1 = 0.1994	1158 ± 2	1048 ± 6	3.057 ± 0.24
343.15 K, x1 = 0.2993	1283 ± 3	1047.8 ± 6	4.514 ± 0.36
343.15 K, x1 = 0.3992	1378 ± 3	1052.8 ± 6.1	6.692 ± 0.54
343.15 K, x1 = 0.4985	1456 ± 3	1058.9 ± 6.1	8.831 ± 0.71
343.15 K, x1 = 0.5999	1521 ± 3	1065.1 ± 6.1	10.95 ± 0.88
343.15 K, x1 = 0.6989	1575 ± 3	1073.5 ± 6.2	14.03 ± 1.1
343.15 K, x1 = 0.7996	1623 ± 4	1081.2 ± 6.2	15.41 ± 1.2
343.15 K, x1 = 0.8973	1662 ± 4	1089.8 ± 6.3	19.94 ± 1.6
343.15 K, x1 = 1	1688 ± 4	1100.2 ± 6.3	23.59 ± 1.9
